This is an account of results in patent US10940139B2, “Compounds that interact with the Ras superfamily for the treatment of cancers, inflammatory diseases, rasopathies, and fibrotic disease” (Shy Therapeutics LLC, priority 2017, dated 2021).

The target in experiment [1] is T1, Rho-A (Homo sapiens (Human), UniProt P61586). The experiment is described as follows: MicroScale Thermophoresis (MST), GTP affinity for binding domain. A general note: In MST a laser heats a spot of the sample, and binding alters the fluorescence response.
Experiment [2] has as its target T1, Rho-A. The experiment is described as follows: Scintillation Proximity Assay (SPA), GTP affinity for binding domain. For orientation: In a scintillation proximity assay essentially only radioactivity close to the scintillant gives light.
In experiment [3] the target is T2, K-Ras (G12D) (Homo sapiens (Human), UniProt P01116, G12D). The experiment is described as above. From the text: (§1) For the first time, the affinity of GTP for the GTP binding domain of K-Ras utilizing a Scintillation Proximity Assay (SPA) and MicroScale Thermophoresis (MST) has been measured and disclosed herein. These methods were not available when Wittinghofer and colleagues undertook their studies.
(§2) This therefore led to the novel, unanticipated conclusion that compounds such as small molecules could be discovered that would bind to a Ras GTP binding domain and compete with the binding of GTP to Ras.
(§3) See Khawaja et al., “Scintillation proximity assay in lead discovery”, Expert Opin. Drug Discov., 2008 November; 3(11):1267-80 regarding SPA procedures. See the following references regarding MST technology: Wienken et al., Nature Communications (2010), Protein binding assays in biological liquids using MicroScale Thermophoresis; Jerabek-Willemsen et al., ASSAY and Drug Development Technologies (2011), Molecular interaction studies using MicroScale Thermophoresis; Lin et al., Cell (2012), Inhibition of basal FGF receptor signaling by dimeric Grb2; Seidel et al., Angewandte Chemie (2012), Label-Free MicroScale Thermophoresis discriminates sites and affinity of protein-ligand binding; Seidel et al., Methods (2012), MicroScale Thermophoresis quantifies biomolecular interactions under previously challenging conditions; Parker & Newstead, Nature (2014), Molecular basis of nitrate uptake by the plant nitrate transporter NRT1.1; and Jerabek-Willemsen et al., Journal of Molecular Structure (2014), MicroScale Thermophoresis: Interaction analysis and beyond.

The target in experiment [4] is T3, KRas wild type (Homo sapiens (Human), UniProt P01116). The experiment is described as above.
From the text: as §1, §2, §3

Experiment [5] addresses T4, K-Ras (G12C) (Homo sapiens (Human), UniProt P01116, G12C). The experiment is described as above.
From the text: as §1, §2, §3

The target of experiment [6] is T5, K-Ras (Q61H/G12C) (Homo sapiens (Human), UniProt P01116, G12C/Q61H). The experiment is described as above.
From the text: as §1, §2, §3

Experiment [7] deals with T6, K-Ras (Q61H) (Homo sapiens (Human), UniProt P01116, Q61H). The experiment is described as above.
From the text: as §1, §2, §3

The target of experiment [8] is T7, K-Ras (Q61H/G12D) (Homo sapiens (Human), UniProt P01116, G12D/Q61H). Described as above.
From the text: as §1, §2, §3

Experiment [9] has as its target T8, Rac-1 (Homo sapiens (Human), UniProt P63000). The experiment is described as above.
Experiment [10] deals with Rac-1 and Rho-A members of the Rho subfamily. The experiment is described as follows: SPA and MST studies, summary range for Rho subfamily members. As to conditions: read-out: affinity of GTP for the binding domain of Rho subfamily members.
From the text: as §2, §3

Experiment [11] addresses GTP binding domain of Ras. To be noted: literature, kinetic and filter binding measurements with radiolabeled GDP and GTP; cited from earlier work.
The target in experiment [12] is K-Ras GTP binding domain across wild type and mutant K-Ras. The experiment is described as follows: SPA and MST studies, summary range across K-Ras forms. To be noted: read-out: affinity of GTP for the K-Ras GTP binding domain.
From the text: For the first time, the affinity of GTP for the GTP binding domain of K-Ras utilizing a Scintillation Proximity Assay (SPA) and MicroScale Thermophoresis (MST) has been measured and disclosed herein. These methods were not available when Wittinghofer and colleagues (referenced above) undertook their studies.
as §2, §1
See Khawaja et al., “Scintillation proximity assay in lead discovery”, Expert Opin. Drug Discov., 2008 November; 3(11):1267-80 regarding SPA procedures. […]

Experiment [13] concerns the target T8, Rac-1. The experiment is described as follows: MicroScale Thermophoresis (MST), GTP affinity for binding domain.
The target in experiment [14] is T2, K-Ras (G12D). The description is as above.
From the text: as §1, §2, §3

Experiment [15] concerns the target T3, KRas wild type. Described as above.
From the text: as §1, §2, §3

The target in experiment [16] is T4, K-Ras (G12C). The description is as above.
From the text: as §1, §2, §3

Experiment [17] concerns the target T5, K-Ras (Q61H/G12C). The experiment is described as above.
From the text: as §1, §2, §3

Experiment [18] addresses T6, K-Ras (Q61H). The description is as above.
From the text: as §1, §2, §3

The target in experiment [19] is T7, K-Ras (Q61H/G12D). The experiment is described as above.
From the text: as §1, §2, §3

Each structure is given as a SMILES string.

T1 sequence (P61586 whole entry, the tested form may be a part): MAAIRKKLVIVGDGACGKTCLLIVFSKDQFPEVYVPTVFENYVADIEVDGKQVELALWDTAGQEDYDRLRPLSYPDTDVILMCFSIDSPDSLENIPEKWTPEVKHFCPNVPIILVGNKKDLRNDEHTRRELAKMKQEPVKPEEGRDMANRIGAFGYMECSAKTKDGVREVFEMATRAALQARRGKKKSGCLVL
T6 sequence (P01116-2 other isoform, or with tags, fused parts or gaps Q61H): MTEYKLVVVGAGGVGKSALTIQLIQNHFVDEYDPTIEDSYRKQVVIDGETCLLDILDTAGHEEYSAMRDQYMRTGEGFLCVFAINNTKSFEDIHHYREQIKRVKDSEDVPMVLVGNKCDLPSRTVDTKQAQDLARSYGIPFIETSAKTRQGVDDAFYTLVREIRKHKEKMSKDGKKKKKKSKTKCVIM
T3 sequence (P01116-2 other isoform, or with tags, fused parts or gaps): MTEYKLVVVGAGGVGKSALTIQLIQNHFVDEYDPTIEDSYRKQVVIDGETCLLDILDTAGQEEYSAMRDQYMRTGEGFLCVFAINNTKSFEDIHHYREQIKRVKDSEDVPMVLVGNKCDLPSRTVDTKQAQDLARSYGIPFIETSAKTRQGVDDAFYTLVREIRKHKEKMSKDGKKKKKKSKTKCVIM
T5 sequence (P01116-2 other isoform, or with tags, fused parts or gaps G12C/Q61H): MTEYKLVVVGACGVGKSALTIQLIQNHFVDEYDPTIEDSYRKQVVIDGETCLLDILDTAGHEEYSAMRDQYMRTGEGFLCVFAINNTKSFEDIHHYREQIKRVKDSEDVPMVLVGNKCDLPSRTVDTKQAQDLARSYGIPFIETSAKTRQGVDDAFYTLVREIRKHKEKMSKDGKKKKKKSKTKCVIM
T4 sequence (P01116-2 other isoform, or with tags, fused parts or gaps G12C): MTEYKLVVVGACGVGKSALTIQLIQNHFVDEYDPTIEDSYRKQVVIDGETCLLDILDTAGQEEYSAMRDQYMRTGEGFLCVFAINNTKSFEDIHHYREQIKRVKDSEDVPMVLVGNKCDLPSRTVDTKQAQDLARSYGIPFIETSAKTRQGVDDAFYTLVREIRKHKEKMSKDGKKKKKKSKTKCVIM
T7 sequence (P01116-2 other isoform, or with tags, fused parts or gaps G12D/Q61H): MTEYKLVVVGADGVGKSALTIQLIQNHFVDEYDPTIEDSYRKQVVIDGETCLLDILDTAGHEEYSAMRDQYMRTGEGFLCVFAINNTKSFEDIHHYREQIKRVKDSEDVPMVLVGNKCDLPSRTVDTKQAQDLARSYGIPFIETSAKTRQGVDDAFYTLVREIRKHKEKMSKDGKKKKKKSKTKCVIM
T2 sequence (P01116-2 other isoform, or with tags, fused parts or gaps G12D): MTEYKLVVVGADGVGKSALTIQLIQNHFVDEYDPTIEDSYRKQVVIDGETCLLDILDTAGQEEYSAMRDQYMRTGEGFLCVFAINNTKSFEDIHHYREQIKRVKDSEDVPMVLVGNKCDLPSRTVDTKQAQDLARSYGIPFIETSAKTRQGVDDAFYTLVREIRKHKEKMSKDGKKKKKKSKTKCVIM

Take `Nc1nc2c(ncn2[C@@H]2O[C@H](COP(=O)(O)OP(=O)(O)OP(=O)(O)O)[C@@H](O)[C@H]2O)c(=O)[nH]1` [GTP]: the Kd is 130 ± 5 nM at Rho-A [1]; 129 ± 12 nM on Rho-A [2]; 270 ± 15 nM at K-Ras (G12D) [3]; 243 ± 15 nM on KRas wild type [4]; 258 ± 18 nM at K-Ras (G12C) [5]; 104 ± 11 nM on K-Ras (Q61H/G12C) [6]. In addition, the Kd was 118 ± 11 nM on K-Ras (Q61H) [7]; 135 ± 19 nM on K-Ras (Q61H/G12D) [8]; 151 ± 14 nM on Rac-1 [9]; 120 to 170 nM in experiment [10]; 100 to 465 nM in experiment [12]; 166 ± 10 nM at Rac-1 [13]. The Kd on K-Ras (G12D) [14] is 244 ± 12 nM; on KRas wild type [15], 463 ± 2 nM; at K-Ras (G12C) [16] it was 207 ± 46 nM; on K-Ras (Q61H/G12C) [17], 266 ± 57 nM; on K-Ras (Q61H) [18], 157 ± 21 nM; at K-Ras (Q61H/G12D) [19] it was 268 ± 108 nM. Moreover, the “affinity for the GTP binding domain of Ras” value in experiment [11] is on record as “single to double digit picomolar”.
